Measured values as given in patent US4414207A, “Rutin poly(H-)sulfate salts and related compounds” (American Cyanamid Company, priority 1982, dated 1983).

Experiments:
activated human C1 = target: T1, activated human C1 (Homo sapiens, UniProt P09871); assay: Test Code 026 (C1 inhibitor); assay type: biochemical; settings: serial dilution assay, twofold dilutions; higher well number indicates higher activity
T1 sequence (P09871 438-688 limits assumed): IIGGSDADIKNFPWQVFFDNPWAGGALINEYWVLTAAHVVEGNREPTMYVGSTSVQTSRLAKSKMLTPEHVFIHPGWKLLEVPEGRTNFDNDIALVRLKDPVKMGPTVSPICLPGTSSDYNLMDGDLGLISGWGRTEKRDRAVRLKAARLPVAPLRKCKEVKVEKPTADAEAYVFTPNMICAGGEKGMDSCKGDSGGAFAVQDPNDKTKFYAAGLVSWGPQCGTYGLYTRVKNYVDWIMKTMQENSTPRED
T1 sequence (P09871 16-437 limits assumed): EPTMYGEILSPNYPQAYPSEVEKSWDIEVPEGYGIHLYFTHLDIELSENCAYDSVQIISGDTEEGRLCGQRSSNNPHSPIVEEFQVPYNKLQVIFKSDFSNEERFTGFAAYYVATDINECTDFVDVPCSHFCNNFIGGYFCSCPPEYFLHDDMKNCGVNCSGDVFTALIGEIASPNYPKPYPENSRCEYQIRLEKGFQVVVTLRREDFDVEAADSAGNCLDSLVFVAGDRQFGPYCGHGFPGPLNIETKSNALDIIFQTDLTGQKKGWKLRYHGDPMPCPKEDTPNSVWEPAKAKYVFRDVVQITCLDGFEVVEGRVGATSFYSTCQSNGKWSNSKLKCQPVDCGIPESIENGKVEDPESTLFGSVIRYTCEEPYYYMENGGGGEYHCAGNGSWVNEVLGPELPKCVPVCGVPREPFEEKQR
Description: (§1) An active inhibitor protects C2 from C1 and C4; (ii) Test Code 035 (C3-C9 inhibitor)--This test determines the ability of the late components of human complement (C3-C9) to lyse EAC 142 in the presence of appropriate dilutions of the test compound. An active inhibitor protects EAC 142 from lysis by human C3-C9; (iii) Test Code 036 (C-Shunt inhibitor)--In this test human erythrocytes rendered fragile are lysed in autologous serum via the shunt pathway activated by cobra venom factor in the presence of appropriate dilutions of the test compound. Inhibition of the shunt pathway results in failure of lysis; (iv) Forssman Vasculitis Test--Here, the well known complement dependent lesions, Forssman vasculitis, is produced in guinea pigs by intradermal injection of rabbit anti-Forssman antiserum. The lesion is measured in terms of diameter, edema and hemorrhage and the extent to which a combined index of these is inhibited by prior intraperitoneal injection of the test compound at 200 mg/kg is then reported, unless otherwise stated; (v) Forssman Shock Test--Lethal shock is produced in guinea pigs by an i.v. injection of anti-Forssman antiserum and the harmonic mean death time of treated guinea pigs is compared with that of simultaneous controls; (vi) Complement Level Reduction Test--In this test, the above dosed guinea pigs, or others, are bled for serum and the complement level is determined in undiluted serum by the capillary tube method of U.S. Pat. No. 3,876,376 and compared to undosed control guinea pigs; and (vii) Cap 50 Test--Here, appropriate amounts of the test compound are added to a pool of guinea pig serum in vitro, after which the undiluted serum capillary tube assay referred to above is run. The concentration of compound inhibiting 50% is reported, (viii) Guinea Pig Intraperitoneal Test (GPIP)--Guinea Pigs weighing about 300 g. are dosed intraperitoneally (i.p.) with 200 mg/kg of the test compound dissolved in saline and adjusted to pH 7-8. […] Percent inhibition are calculated by comparison with simultaneous controls. […]

[1] = system: late components of human complement (C3-C9); assay: Test Code 035 (C3-C9 inhibitor); assay type: biochemical; settings: lysis of EAC 142 by human C3-C9
Description: as §1

[2] = system: shunt pathway activated by cobra venom factor; assay: Test Code 036 (C-Shunt inhibitor); assay type: cell-based; settings: fragile human erythrocytes in autologous serum
Description: as §1

[3] = system: complement activity of sera; assay: Guinea Pig Intraperitoneal Test (GPIP); assay type: in vivo; settings: 200 mg/kg i.p.
Description: as §1

guinea pigs = assay: Forssman Shock Test; assay type: in vivo, guinea pig; settings: i.v. anti-Forssman antiserum, Control 3.3
Description: (§2) An active inhibitor protects C2 from C1 and C4; (ii) Test Code 035 (C3-C9 inhibitor)--This test determines the ability of the late components of human complement (C3-C9) to lyse EAC 142 in the presence of appropriate dilutions of the test compound. An active inhibitor protects EAC 142 from lysis by human C3-C9; (iii) Test Code 036 (C-Shunt inhibitor)--In this test human erythrocytes rendered fragile are lysed in autologous serum via the shunt pathway activated by cobra venom factor in the presence of appropriate dilutions of the test compound. Inhibition of the shunt pathway results in failure of lysis; (iv) Forssman Vasculitis Test--Here, the well known complement dependent lesions, Forssman vasculitis, is produced in guinea pigs by intradermal injection of rabbit anti-Forssman antiserum. […] Percent inhibition are calculated by comparison with simultaneous controls. […]

complement = complement inhibiting activity using the tests disclosed herein; settings: stated in words
Description: as §2

| Molecule | 026 (C1 inhibitor), activity in wells (activated human C1) | 035 (C3-C9 inhibitor) [1] | 036 (C-Shunt inhibitor) [2] | In vivo activity (Guinea Pig) Intraperitoneal % Inhibition, 30 minutes ([3]; serum complement 30 minutes after injection) [%] | In vivo activity (Guinea Pig) Intraperitoneal % Inhibition, 60 minutes ([3]; serum complement 60 minutes after injection) [%] | In vivo activity (Guinea Pig) Intraperitoneal % Inhibition, 120 minutes ([3]; serum complement 120 minutes after injection) [%] | Forssman Shock (harmonic mean death time) (guinea pigs) [min] | complement inhibiting activity (complement) |
| --- | --- | --- | --- | --- | --- | --- | --- | --- |
| C[C@@H]1O[C@@H](OC[C@H]2O[C@@H](Oc3c(-c4ccc(O)c(O)c4)oc4cc(O)cc(O)c4c3=O)[C@H](O)[C@@H](O)[C@@H]2O)[C@H](O)[C@H](O)[C@H]1O [Rutin] | N | N | N |  |  |  |  |  |
| Rutin poly(H-)sulfate, sodium salt | +7 wells | N | N | -79 | -89 | -89 | 17.2 |  |
| Rutin poly(H-)sulfate, sodium salt (original source commercial `Rutin water soluble`) |  |  |  |  |  |  |  | highly active |
| Rutin poly(H-)sulfate, trimethylamine salt | +2 wells | N | N |  |  |  |  |  |
